pIC50: −log10 of the molar value. Read-outs that look alike come from different tables or passages of the source.
Key:
JAK2 = biological target: T1, JAK2 (Homo sapiens, UniProt O60674); assay: Recombinant Human JAK2 Kinase Assay (TRF); assay type: biochemical; conditions: read-out: JAK2 Potency
T1 construct: host or cells: baculovirus expression system
Procedure, shortened: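 Baculovirus-expressed JAK2 (15 ng/ml) phosphorylated a biotinylated 15-mer peptide captured on Neutravidin-coated plates, in 20 mM HEPES pH 7.2 with 0.2 μM ATP, 1 mM MnCl2, 0.1% BSA and 2.5% DMSO. Reaction ran 20 min at room temperature; phosphopeptide was detected by time-resolved fluorescence with Eu-N1-labelled PY100 antibody.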

ALK = biological target: T2, ALK (Homo sapiens, UniProt Q9UM73); assay: ALK Kinase Assay (ELISA/TRF, PLC-γ substrate); assay type: biochemical; conditions: read-out: ALK Potency
T2 construct: host or cells: baculovirus expression system
Procedure, shortened: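 IC50 values derive from percent inhibition plotted against log10 compound concentration and fitted to a variable-slope sigmoidal equation. The underlying reaction used 30 ng/ml ALK acting on immobilized PLC-γ (10 μg/mL in TBS) at 37° C for 15 minutes, read with Eu-N1 PT66 antibody.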

[1] = JAK2 kinase inhibition, 0.2 μM ATP
[2] = ALK kinase inhibition, 1 μM ATP

T1 sequence (O60674 whole entry): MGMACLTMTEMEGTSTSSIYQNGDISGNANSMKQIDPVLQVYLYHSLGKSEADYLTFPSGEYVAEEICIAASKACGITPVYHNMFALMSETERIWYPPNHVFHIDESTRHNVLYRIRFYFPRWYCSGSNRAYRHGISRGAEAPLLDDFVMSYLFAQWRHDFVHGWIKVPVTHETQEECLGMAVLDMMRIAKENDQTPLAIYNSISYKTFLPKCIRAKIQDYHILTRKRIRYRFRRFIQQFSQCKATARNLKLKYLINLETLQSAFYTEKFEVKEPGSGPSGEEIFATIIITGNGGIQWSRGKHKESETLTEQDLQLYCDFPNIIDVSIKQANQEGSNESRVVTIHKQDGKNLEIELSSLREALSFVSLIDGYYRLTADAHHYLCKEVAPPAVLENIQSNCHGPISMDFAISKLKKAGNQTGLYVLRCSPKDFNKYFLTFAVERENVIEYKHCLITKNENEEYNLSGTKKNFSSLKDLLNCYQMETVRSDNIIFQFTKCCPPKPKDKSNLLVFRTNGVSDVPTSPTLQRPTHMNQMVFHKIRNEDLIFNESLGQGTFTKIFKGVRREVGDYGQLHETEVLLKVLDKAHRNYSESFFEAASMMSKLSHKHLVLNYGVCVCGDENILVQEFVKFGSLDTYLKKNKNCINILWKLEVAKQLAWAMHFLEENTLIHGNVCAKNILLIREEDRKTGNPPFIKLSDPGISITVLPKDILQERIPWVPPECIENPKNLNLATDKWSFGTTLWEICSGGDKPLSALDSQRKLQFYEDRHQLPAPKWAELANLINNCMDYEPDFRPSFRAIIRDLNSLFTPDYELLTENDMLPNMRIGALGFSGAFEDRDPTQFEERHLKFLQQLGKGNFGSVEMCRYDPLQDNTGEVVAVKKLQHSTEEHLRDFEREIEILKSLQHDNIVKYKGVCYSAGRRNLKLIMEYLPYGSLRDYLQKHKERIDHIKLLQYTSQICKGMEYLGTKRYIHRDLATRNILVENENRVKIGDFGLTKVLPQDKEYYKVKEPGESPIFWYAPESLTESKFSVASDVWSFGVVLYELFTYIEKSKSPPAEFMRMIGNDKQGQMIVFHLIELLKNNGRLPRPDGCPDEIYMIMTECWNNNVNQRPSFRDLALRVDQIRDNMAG
T2 sequence (Q9UM73 19-1620): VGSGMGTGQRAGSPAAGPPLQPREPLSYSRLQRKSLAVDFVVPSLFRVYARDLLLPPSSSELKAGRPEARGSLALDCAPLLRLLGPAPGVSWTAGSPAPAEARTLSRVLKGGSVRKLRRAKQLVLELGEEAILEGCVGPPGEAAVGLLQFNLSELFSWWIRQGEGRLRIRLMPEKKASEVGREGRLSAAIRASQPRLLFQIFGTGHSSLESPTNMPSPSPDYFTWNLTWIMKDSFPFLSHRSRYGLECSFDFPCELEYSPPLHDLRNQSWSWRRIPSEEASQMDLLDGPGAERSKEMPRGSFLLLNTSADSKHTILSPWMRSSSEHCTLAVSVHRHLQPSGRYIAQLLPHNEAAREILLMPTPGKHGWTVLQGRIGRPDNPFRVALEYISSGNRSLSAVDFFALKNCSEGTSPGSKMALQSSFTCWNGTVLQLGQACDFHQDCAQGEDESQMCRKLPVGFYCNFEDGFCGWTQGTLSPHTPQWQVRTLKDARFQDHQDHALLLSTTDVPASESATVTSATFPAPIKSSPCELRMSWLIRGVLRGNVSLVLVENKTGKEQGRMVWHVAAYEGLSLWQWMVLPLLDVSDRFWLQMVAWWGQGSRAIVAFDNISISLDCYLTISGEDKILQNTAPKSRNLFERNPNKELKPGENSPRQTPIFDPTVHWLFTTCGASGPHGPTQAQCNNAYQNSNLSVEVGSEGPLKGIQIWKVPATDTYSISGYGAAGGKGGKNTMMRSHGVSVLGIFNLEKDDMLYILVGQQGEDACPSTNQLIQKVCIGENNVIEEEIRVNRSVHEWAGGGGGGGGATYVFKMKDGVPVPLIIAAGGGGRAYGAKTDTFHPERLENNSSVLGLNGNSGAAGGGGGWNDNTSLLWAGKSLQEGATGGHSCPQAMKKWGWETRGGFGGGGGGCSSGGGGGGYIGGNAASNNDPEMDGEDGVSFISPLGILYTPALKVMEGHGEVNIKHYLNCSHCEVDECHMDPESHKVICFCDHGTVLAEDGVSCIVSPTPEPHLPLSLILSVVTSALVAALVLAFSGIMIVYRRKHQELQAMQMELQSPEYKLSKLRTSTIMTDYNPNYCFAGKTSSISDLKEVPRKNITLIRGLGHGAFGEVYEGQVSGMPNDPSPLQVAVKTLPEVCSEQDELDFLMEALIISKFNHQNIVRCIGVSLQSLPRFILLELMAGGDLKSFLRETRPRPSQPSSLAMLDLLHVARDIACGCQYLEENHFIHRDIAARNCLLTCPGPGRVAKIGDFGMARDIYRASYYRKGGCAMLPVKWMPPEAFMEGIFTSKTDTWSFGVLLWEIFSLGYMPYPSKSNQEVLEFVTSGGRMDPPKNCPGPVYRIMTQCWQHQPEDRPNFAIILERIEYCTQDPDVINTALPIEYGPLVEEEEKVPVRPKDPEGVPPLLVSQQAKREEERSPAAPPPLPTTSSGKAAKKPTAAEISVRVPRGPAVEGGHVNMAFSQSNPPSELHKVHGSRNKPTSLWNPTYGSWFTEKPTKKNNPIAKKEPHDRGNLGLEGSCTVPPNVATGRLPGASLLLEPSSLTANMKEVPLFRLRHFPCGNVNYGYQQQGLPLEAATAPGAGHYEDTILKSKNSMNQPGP

Molecule | pIC50 (JAK2; JAK2 Kinase Inhibition) | pIC50 (ALK; ALK Kinase Inhibition) | pIC50 (JAK2; [1]) | pIC50 (ALK; [2])
CNC(=O)c1ccc(-c2ccc3cnc(Nc4ccc(N5CCOCC5)cc4)nn23)cc1 [Example 55, N-Methyl-4-[2-(4-morpholin-4-yl-phenylamino)-pyrrolo[2,1-f][1,2,4]triazin-7-yl]-benzamide] | > 7.00 | 5.00 to 6.00 | – | –
CN1CCN(c2ccc(Nc3ncc4ccc(C5=CCC(S(C)(=O)=O)CC5)n4n3)cc2)CC1 (stereo not drawn) [Example 620, [7-(4-Methanesulfonyl-cyclohex-1-enyl)-pyrrolo[2,1-f][1,2,4]triazin-2-yl]-[4-(4-methyl-piperazin-1-yl)-phenyl]-amine] | – | – | > 7.00 | 6.00 to 7.00
CN1C(=O)Cc2cc(Nc3ncc4ccc(Nc5cccnc5N(C)S(C)(=O)=O)n4n3)ccc21 [Example 387, N-Methyl-N-{3-[2-(1-methyl-2-oxo-2,3-dihydro-1H-indol-5-ylamino)-pyrrolo[2,1-f][1,2,4]triazin-7-ylamino]-pyridin-2-yl}-methanesulfonamide] | > 7.00 | 5.00 to 6.00 | – | –
CN1CCOc2ccc(Nc3ncc4ccc(-c5ccccc5N(C)S(C)(=O)=O)n4n3)cc21 [Example 641, N-Methyl-N-{2-[2-(4-methyl-3,4-dihydro-2H-benzo[1,4]oxazin-6-ylamino)-pyrrolo[2,1-f][1,2,4]triazin-7-yl]-phenyl}methanesulfonamide] | – | – | > 7.00 | 6.00 to 7.00
7-(2-methoxy-phenyl)-pyrrolo(2,1-f)(1,2,4)triazin-2-yl-6-amino-1′-methyl-spiro(2H-1-benzopyran-2,4′-piperidine) [Example 377] | > 7.00 | > 7.00 | – | –
COc1ccccc1-c1ccc2cnc(Nc3ccc4c(c3)OCO4)nn12 [Example 149, 1,3-Benzodioxol-5-yl-[7-(2-methoxy-phenyl)-pyrrolo[2,1-f][1,2,4]triazin-2-yl]-amine] | > 7.00 | 6.00 to 7.00 | – | –
COc1cc(N2CCCC(N3CCN(C(=O)OCc4ccccc4)CC3)C2)ccc1Nc1ncc2ccc(-c3ccccc3OC)n2n1 (stereo not drawn) [Example 234, 4-(1-{3-Methoxy-4-[7-(2-methoxy-phenyl)-pyrrolo[2,1-f][1,2,4]triazin-2-ylamino]-phenyl}-piperidin-3-yl)-piperazine-1-carboxylic acid benzyl ester] | 5.00 to 6.00 | 6.00 to 7.00 | – | –
COc1cc(C2CCN(CCO)CC2)ccc1Nc1ncc2ccc(-c3cccc(S(=O)(=O)NC(C)(C)C)c3)n2n1 [Example 694, N-tert-Butyl-3-(2-{4-[1-(2-hydroxy-ethyl)-piperidin-4-yl]-2-methoxy-phenylamino}-pyrrolo[2,1-f][1,2,4]triazin-7-yl)-benzenesulfonamide] | – | – | 6.00 to 7.00 | > 7.00
COc1cc(CCN2CCN(C)CC2)ccc1Nc1ncc2ccc(-c3ccccc3OC)n2n1 [Example 488, {2-Methoxy-4-[2-(4-methyl-piperazin-1-yl)-ethyl]-phenyl}-[7-(2-methoxy-phenyl)-pyrrolo[2,1-f][1,2,4]triazin-2-yl]-amine] | – | – | 6.00 to 7.00 | > 7.00
COc1cc(N(C)C(=O)CN2CCOCC2)ccc1Nc1ncc2ccc(-c3ccccc3N(C)S(C)(=O)=O)n2n1 [Example 473, N-(4-{7-[2-(Methanesulfonyl-methyl-amino)-phenyl]-pyrrolo[2,1-f][1,2,4]triazin-2-ylamino}-3-methoxy-phenyl)-N-methyl-2-morpholin-4-yl-acetamide] | – | – | 5.00 to 6.00 | > 7.00
Clc1cccc(-c2ccc3cnc(Nc4ccc5ncccc5c4)nn23)c1 [Example 177, [7-(3-Chloro-phenyl)-pyrrolo[2,1-f][1,2,4]triazin-2-yl]-quinolin-6-yl-amine] | > 7.00 | 6.00 to 7.00 | – | –
COc1ccc(-c2ccc3cnc(Nc4ccc(C5CN(CC(N)=O)C5)cc4)nn23)cn1 [Example 584, 2-(3-{4-[7-(6-Methoxy-pyridin-3-yl)-pyrrolo[2,1-f][1,2,4]triazin-2-ylamino]-phenyl}-azetidin-1-yl)-acetamide] | – | – | > 7.00 | 6.00 to 7.00
COc1cc2c(cc1Nc1ncc3ccc(-c4ccccc4OC)n3n1)CN(C(C)C)C2 [Example 877, (2-Isopropyl-6-methoxy-2,3-dihydro-1H-isoindol-5-yl)-[7-(2-methoxy-phenyl)-pyrrolo[2,1-f][1,2,4]triazin-2-yl]-amine] | – | – | > 7.00 | > 7.00
COc1ccc(-c2ccc3cnc(Nc4ccc5c(c4)CC(=O)N5C)nn23)cn1 [Example 384, 5-[7-(6-Methoxy-pyridin-3-yl)-pyrrolo[2,1-f][1,2,4]triazin-2-ylamino]-1-methyl-1,3-dihydro-indol-2-one] | > 7.00 | 5.00 to 6.00 | – | –

Further lines, results first:

pIC50 (JAK2; JAK2 Kinase Inhibition) | pIC50 (ALK; ALK Kinase Inhibition) | pIC50 (JAK2; [1]) | pIC50 (ALK; [2]) | Molecule
– | – | > 7.00 | 5.00 to 6.00 | COc1ccccc1-c1ccc2cnc(Nc3ccc4nc(C(F)(F)F)[nH]c4c3)nn12 [Example 1305]
– | – | > 7.00 | 6.00 to 7.00 | CN1Cc2ccc(Nc3ncc4ccc(-c5cccc(S(=O)(=O)NC(C)(C)C)c5)n4n3)cc2C1 [Example 936, N-tert-Butyl-3-[2-(2-methyl-2,3-dihydro-1H-isoindol-5-ylamino)-pyrrolo[2,1-f][1,2,4]triazin-7-yl]-benzenesulfonamide]
– | – | > 7.00 | 6.00 to 7.00 | CC(C)(C)NS(=O)(=O)c1cccc(-c2ccc3cnc(Nc4cccc(NS(C)(=O)=O)c4)nn23)c1 [Example 889, N-tert-Butyl-3-[2-(3-methanesulfonylamino-phenylamino)-pyrrolo[2,1-f][1,2,4]triazin-7-yl]-benzenesulfonamide]
6.00 to 7.00 | > 7.00 | – | – | COc1cc(N2CCC(F)(F)CC2)ccc1Nc1ncc2ccc(-c3ccccc3N(C)S(C)(=O)=O)n2n1 [Example 1469, N-(2-{2-[4-(4,4-Difluoro-piperidin-1-yl)-2-methoxy-phenylamino]-pyrrolo[2,1-f][1,2,4]triazin-7-yl}-phenyl)-N-methyl-methanesulfonamide]
– | – | > 7.00 | 6.00 to 7.00 | CN1CCN(c2ccc(Nc3ncc4ccc(-c5ccc(CN6CCS(=O)(=O)CC6)nc5)n4n3)cc2)CC1 [Example 1056, {7-[6-(1,1-Dioxo-1$1(6)-thiomorpholin-4-ylmethyl)-pyridin-3-yl]-pyrrolo[2,1-f][1,2,4]triazin-2-yl}-[4-(4-methyl-piperazin-1-yl)-phenyl]-amine]
> 7.00 | > 7.00 | – | – | COc1cc(N2CCC(C)(N3CCOCC3)CC2)ccc1Nc1ncc2ccc(-c3ccccc3OC)n2n1 [Example 1467]
– | – | > 7.00 | 6.00 to 7.00 | COc1ccccc1-c1ccc2cnc(Nc3ccc4ncn(CCN5CCOCC5)c4c3)nn12 [Example 1349, [7-(2-Methoxy-phenyl)-pyrrolo[2,1-f][1,2,4]triazin-2-yl]-[3-(2-morpholin-4-yl-ethyl)-3H-benzimidazol-5-yl]-amine]
– | – | > 7.00 | > 7.00 | COc1ccccc1-c1ccc2cnc(Nc3ccc(C4CCN(C)CC4)c(C)c3)nn12 [Example 942, [7-(2-Methoxy-phenyl)-pyrrolo[2,1-f][1,2,4]triazin-2-yl]-[3-methyl-4-(1-methyl-piperidin-4-yl)-phenyl]-amine]
6.00 to 7.00 | 6.00 to 7.00 | – | – | Cc1cc2[nH]c(=O)oc2cc1Nc1ncc2ccc(-c3ccccc3N(C)S(C)(=O)=O)n2n1 [Example 1492, N-Methyl-N-{2-[2-(5-methyl-2-oxo-2,3-dihydro-benzoxazol-6-ylamino)-pyrrolo[2,1-f][1,2,4]triazin-7-yl]-phenyl}-methanesulfonamide]
< 5.00 | < 5.00 | – | – | COc1ccccc1-c1ccc2cnc(C(N)=O)nn12 [Example 1495, 7-(2-Methoxy-phenyl)-pyrrolo[2,1-f][1,2,4]triazine-2-carboxylic acid amide]
– | – | 6.00 to 7.00 | 5.00 to 6.00 | CN1CCN(c2ccc(Nc3ncc4ccc(-c5cnccc5NS(C)(=O)=O)n4n3)cc2)CC1 [Example 1218, N-(3-{2-[4-(4-Methyl-piperazin-1-yl)-phenylamino]-pyrrolo[2,1-f][1,2,4]triazin-7-yl}-pyridin-4-yl)-methanesulfonamide]
– | – | > 7.00 | 6.00 to 7.00 | CC(C)(C)NS(=O)(=O)c1cccc(-c2ccc3cnc(Nc4cccc(OCCN5CCOCC5)c4)nn23)c1 [Example 1001, N-tert-Butyl-3-{2-[3-(2-morpholin-4-yl-ethoxy)-phenylamino]-pyrrolo[2,1-f][1,2,4]triazin-7-yl}-benzenesulfonamide]
> 7.00 | < 5.00 | – | – | O=S1(=O)CCCN1c1cccc(-c2ccc3cnc(Nc4cccc(-n5cccn5)c4)nn23)c1 [Example 1506, 7-[3-(1,1-Dioxido-1,2-thiazolidin-2-yl)phenyl]-N-[3-(1H-pyrazol-1-yl)phenyl]pyrrolo[2,1-f][1,2,4]triazin-2-amine]
– | – | > 7.00 | < 5.00 | COc1ccc(-c2ccc3cnc(Nc4ccc(CN5CCS(=O)(=O)CC5)cc4)nn23)cn1 [Example 1051, [4-(1,1-Dioxo-1$1(6)-thiomorpholin-4-ylmethyl)-phenyl]-[7-(6-methoxy-pyridin-3-yl)-pyrrolo[2,1-f][1,2,4]triazin-2-yl]-amine]
> 7.00 | 6.00 to 7.00 | – | – | CC(C)(C)NS(=O)(=O)c1cccc(-c2ccc3cnc(Nc4ccc5nc(CN6CCOCC6)[nH]c5c4)nn23)c1 [Example 1514, N-tert-Butyl-3-[2-(2-morpholin-4-ylmethyl-3H-benzimidazol-5-ylamino)-pyrrolo[2,1-f][1,2,4]triazin-7-yl]-benzenesulfonamide]
– | – | 5.00 to 6.00 | 6.00 to 7.00 | COc1cc(N2CCC(N3CCOCC3)CC2)ccc1Nc1ncc2ccc(-n3cccn3)n2n1 [Example 1272, [2-Methoxy-4-(4-morpholin-4-yl-piperidin-1-yl)-phenyl]-(7-pyrazol-1-yl-pyrrolo[2,1-f][1,2,4]triazin-2-yl)-amine]

From patent publication US8471005B2 (Cephalon, Inc., priority 2008, dated 2013)
